The values that follow come from US20050014690A1, “Styryl acrylonitrile compounds and their use to promote myelopoiesis” (priority 2001, published 2005).

Data set [1] deals with cells of the myeloid lineage. As to the kind of experiment: Promotion of myelopoiesis (general statement). The conditions noted are these: in vitro, ex vivo and in vivo.
For data set [2], the system named is mice. The data set is described as follows: Granulocytes in the spleen of treated mice. The data set is classed as in vivo.
In data set [3] the test system is CD34+ multipotent stem cells. The data set is described as follows: CFU-C colony formation from CD34+ selected stem cells. In kind it is cell-based, human.
The test system of data set [4] is mice. As to the kind of experiment: Peripheral white blood cell count in mice. In kind it is in vivo. The following applies: SCI mouse model; similar kinetics to G-CSF treated mice. The procedure:
Promotion of peripheral white blood cell count by CR11. Mice were injected daily with CR11. 250 μl of 400 μM CR11 was injected in PBS. Controls were injected with matching concentrations of CR11 solvent (DMSO) in PBS, or recombinant human G-CSF. After 14 and 17 days blood peripheral blood samples were taken and white blood cell counts determined. Results from each group were averaged.

Data set [5] relates to normal bone marrow cells. The data set is described as follows: CFU-C colony formation after short high dose exposure (2.5-5 hours), wash-out, 14 day culture. The data set is classed as cell-based, human. The procedure:
Stimulation of CFU-C colony formation with high dose CR4 for 2.5 hours. Bone marrow cells were layered over Percoll and centrifuged at 400 g at 4° C. for 10 minutes to remove neutrophils and RBCs. The cells were resuspended at 1×10^6/ml in complete medium with or without 50 μM CR4. The cells were incubated with the compound for two and a half hours at 37° C., 5% CO2. At the end of this period the cells were thoroughly washed in medium to remove CR4 and then cultured at 2×10^5 cells/ml in IMDM containing 0.9% (vol/vol) methylcellulose supplemented with 30% FCS or normal human plasma, and a cocktail of cytokines containing G-CSF (10 ng/ml), IL-3 (40 U/ml,), MGF (50 ng/ml), Erythropoietin or TPO and 5×10^−5M μ-2-mercaptoethanol. The culture mixture was plated in 1 ml volumes into 35 mm petri dishes and incubated at 37° C., 5% CO2 in a humidified atmosphere. All cultures were evaluated at 14 days for the number of CFU-C colonies. […] Stimulation of CFU-C colony formation with high dose CR4 for 2.5 and 5 hours. Bone marrow cells were prepared and treated as in Example 19, except exposure times of 2.5 and 5 hours were evaluated. The culture mixture was plated in 1 ml volumes into 35 mm petri dishes and incubated at 37° C., 5% CO2 in a humidified atmosphere. All cultures were evaluated at 14 days for the number of CFU-GM colonies (defined as granulocyte or macrophage cells or both). […] Stimulation of CFU-C colony formation with high dose CR4—two independent bone marrow samples (A&B). Bone marrow cells were prepared and treated as in Example 19, except that CR4 concentrations of 25 and 50 μM were evaluated. The culture mixtures was plated in 1 ml volumes into 35 mm petri dishes and incubated at 37° C., 5% CO2 in a humidified atmosphere. All cultures were evaluated at 14 days for the number of CFU-C colonies.

For data set [6], the system named is normal bone marrow cells. The data set is described as follows: CFU-GEMM colony assay, normal bone marrow, compound present for 14 days. In kind it is cell-based, human. On the procedure: Treatment of normal bone marrow in culture with CR4. The CFU-GEMM assay was performed according to Fauser and Messner (Blood, 52(6) 1243-8,1978) and Messner and Fausser (Blut 41(5) 327-33, 1980) with some variations. In brief, heparinized bone marrow cells were layered over Percoll (1.077 gm/ml) and centrifuged at 400 g at 4° C. for 10 minutes to remove neutrophils and RBCs. The fractionated BM cells at 2×10^5 cells/ml were cultured in IMDM containing 0.9% (vol/vol) methylcellulose supplemented with 30% FCS or normal human plasma, a cocktail of cytokines containing G-CSF (10 ng/ml), IL-3 (40 U/ml), MGF (50 ng/ml), Erythropoietin (2u/ml) or TPO (10 ng/ml) and 5×10^−5M μ-2-mercaptoethanol. CR4 was added to the cells in concentrations indicated in FIG. 1 and the culture mixture was plated in 1 ml volumes into 35 mm petri dishes and incubated at 37° C., 5% CO2 in a humidified atmosphere. All cultures were evaluated at 14 days for the number of BFU-E colonies (defined as aggregates of more than 500 hemaglobinized cells or, 3 or more erythroid subcolonies), CFU-C colonies (defined as granulocyte or monocyte-macrophage cells or both), and CFU-GEMM colonies (a mixed population comprising of all elements). All control samples in this and other examples were treated with the matching concentration of the solvent (DMSO) for the compounds in the same medium or in the case of Example 21, PBS, as indicated. CFU-C stimulation with CR4 dose response. Bone marrow cells were prepared as in Example 15. CR4 was added to the cells at 10 or 20 μM. The culture mixture was plated in 1 ml volumes into 35 mm petri dishes and incubated at 37° C., 5% CO2 in a humidified atmosphere. All cultures were evaluated at 14 days for the number of CFU-C colonies (defined as granulocyte or monocyte-macrophage cells or both). […] Stimulation of CFU-C colony formation by CR11. Bone marrow cells were prepared as in Example 15. CR11 was added to the cells at 10 or 20 μM. The culture mixture was plated in 1 ml volumes into 35 mm petri dishes and incubated at 37° C., 5% […] in a humidified atmosphere. All cultures were evaluated at 14 days for the number of CFU-C colonies. […] CFU-C stimulation with CR19 dose response. Bone marrow cells were prepared as in Example 15. The culture mixture was plated in 1 ml volumes into 35 mm petri dishes and incubated at 37° C., 5% CO2 in a humidified atmosphere. All cultures were evaluated at 14 days for the number of BFU-E and CFU-C colonies.

A further data set concerns transformed cell. As to the kind of experiment: Transformed cell growth. In kind it is cell-based.

“Also recorded” adds a separate entry of the source.

For `N#C/C(=C\C=C\c1ccc(O)c(O)c1)C(=O)NCc1ccccc1` [CR4, (E,E)-2-(Benzylaminocarbonyl)-3-(3,4-dihydroxystyryl)acrylonitrile], the promoting myelopoiesis entry in data set [1] is reported as “capable of promoting myelopoiesis”. Besides, the normal splenic granulocytes entry with mice [2] (daily injection, SCI mouse model) is given as “tremendous increase”. In addition, the “non-specific damage to the animal” value in the data set with mice [2] (doses required to promote myelopoiesis, one month of continual administration) is “did not result in detectable non-specific damage”. The “granulocytes in the spleen” value with mice [2] (mice, one month, subcutaneous osmotic pump, theoretical 200 μg/kg/hr, FIG. 10) was “Increase in granulocytes”. Further, the “formation of CFU-C colonies from CD34+ stem cells” value in data set [3] (concentrations from 2.5-7.5 μM, 14 days, FIG. 2) is recorded as “significantly increased”. Moreover, the “myeloproliferation with purified CD34+ and hematopoietic stem cells” value in data set [3] (short-term CFU-GEMM assay, FIG. 12) is recorded as “can be induced”. Further, the “white blood cells in the peripheral blood” value with mice [4] is reported as “Increased numbers”. Further, the CFU-C colony formation entry in the data set with normal bone marrow cells [5] (5 μM (so in the source), five hours exposure, FIG. 6) is “increased significantly”; in the data set on normal bone marrow cells [5] (5 μM (so in the source), two and a half hours exposure, FIG. 6) it was “increased significantly”; in the data set with normal bone marrow cells [5] (25 μM, five hours exposure, bone marrow sample A, FIG. 7A) it was “increased significantly”; in the data set on normal bone marrow cells [5] (50 μM, five hours exposure, bone marrow sample A, FIG. 7A) it was “increased significantly”; in the data set on normal bone marrow cells [5] (50 μM, five hours exposure, other bone marrow sample, FIG. 7B) it was “increased significantly”; in the data set on normal bone marrow cells [5] (50 μM, two and a half hours exposure, FIG. 5), “increased significantly”. Moreover, the CFU-C colony formation entry in the data set on normal bone marrow cells [6] (10 μM, 14 days) is on record as “significantly stimulated; also recorded: significantly increased”; in the data set on normal bone marrow cells [6] (20 μM, 14 days), “equivalent to the control”. In addition, the “myelopoiesis when the cells are cultured” value in the data set with normal bone marrow cells [5] (25-50 μM for 2-5 hours) was “increased myelopoiesis”. Further, the “other normal bone marrow cells” value in the data set on normal bone marrow cells [5] (same doses (25-50 μM) over the same period (2-5 hours)) is “relatively unaffected”. Further, the BFU-E colony formation entry in the data set with normal bone marrow cells [6] (10 μM, 14 days, FIG. 1) is given as “some inhibition”. In addition, the “toxicity to normal bone marrow cells” value with normal bone marrow cells [6] (14 days, until concentrations of 20 μM or greater) was “minimal toxicity”. Further, the CFU-C colony numbers entry with normal bone marrow cells [6] (concentrations from about 0.6 to 10 μM, 14 days, FIG. 1) is “stimulated”. For the same compound, the “toxicity upon normal bone marrow” value with normal bone marrow cells [6] (doses up to 5 μM, 14 days, FIG. 1) is recorded as “negligible toxicity”. Moreover, the “number of CFU-GM or CFU-C colonies” value with normal bone marrow cells [6] (in vitro assays of human bone marrow cell growth, continual exposure for 14 days, about 1-20 μM) is recorded as “effective in increasing”. In addition, the transformed cell growth entry in the data set on transformed cell is “do not promote”.
